Measurements: BindingDB's records for doi:10.1016/s0960-894x(01)00019-1 (Glaxowellcome Medicines Research Centre, 2001)

Experiment: Inhibitory activity against influenza A sialidase (Aichi)

SMILES | IC50 [µM]
CCCN(CCc1ccccc1)C(=O)[C@@H]1OC(C(=O)O)=C[C@H](O)[C@H]1NC(C)=O [(4S,5R,6R)-5-Acetylamino-4-hydroxy-6-(phenethyl-propyl-carbamoyl)-5,6-dihydro-4H-pyran-2-carboxylic acid] | 0.007
CCCN(CCc1ccccc1)C(=O)[C@@H]1OC(C(=O)O)=C[C@@H](O)[C@H]1NC(C)=O [(4R,5R,6R)-5-Acetylamino-4-hydroxy-6-(phenethyl-propyl-carbamoyl)-5,6-dihydro-4H-pyran-2-carboxylic acid] | 0.017
CCCN(CCc1ccccc1)C(=O)[C@@H]1OC(C(=O)O)=CC[C@H]1NC(C)=O [(5R,6R)-5-Acetylamino-6-(phenethyl-propyl-carbamoyl)-5,6-dihydro-4H-pyran-2-carboxylic acid] | 0.007
CCCN(CCC)C(=O)[C@@H]1OC(C(=O)O)=C[C@H](N)[C@H]1NS(C)(=O)=O [(4S,5R,6R)-4-Amino-6-dipropylcarbamoyl-5-methanesulfonylamino-5,6-dihydro-4H-pyran-2-carboxylic acid] | 3
CCCN(CCC)C(=O)[C@@H]1OC(C(=O)O)=C[C@H](N)[C@H]1NC(=O)CC [(4S,5R,6R)-4-Amino-6-dipropylcarbamoyl-5-propionylamino-5,6-dihydro-4H-pyran-2-carboxylic acid] | 0.005
CCCN(CCC)C(=O)[C@@H]1OC(C(=O)O)=C[C@H](N)[C@H]1NC(=O)C(C)C [(4S,5R,6R)-4-Amino-6-dipropylcarbamoyl-5-isobutyrylamino-5,6-dihydro-4H-pyran-2-carboxylic acid] | 17
CCCN(CCC)C(=O)[C@@H]1OC(C(=O)O)=C[C@@H](N)[C@H]1NC(C)=O [(4R,5R,6R)-5-Acetylamino-4-amino-6-dipropylcarbamoyl-5,6-dihydro-4H-pyran-2-carboxylic acid] | 0.14
CCCN(CCc1ccccc1)C(=O)[C@@H]1OC(C(=O)O)=C[C@H](N)[C@H]1NC(=O)CC [(4S,5R,6R)-4-Amino-6-(phenethyl-propyl-carbamoyl)-5-propionylamino-5,6-dihydro-4H-pyran-2-carboxylic acid] | 0.0007
CCCN(CCc1ccccc1)C(=O)[C@@H]1OC(C(=O)O)=C[C@H](N)[C@H]1NC(=O)C(F)(F)F [(4S,5R,6R)-4-Amino-6-(phenethyl-propyl-carbamoyl)-5-(2,2,2-trifluoro-acetylamino)-5,6-dihydro-4H-pyran-2-carboxylic acid] | 0.003
CCCN(CCC)C(=O)[C@@H]1OC(C(=O)O)=C[C@H](NCC)[C@H]1NC(C)=O [(4S,5R,6R)-5-Acetylamino-6-dipropylcarbamoyl-4-ethylamino-5,6-dihydro-4H-pyran-2-carboxylic acid] | 0.42
CCCC(=O)N[C@@H]1[C@@H](N)C=C(C(=O)O)O[C@H]1C(=O)N(CCC)CCc1ccccc1 [(4S,5R,6R)-4-Amino-5-butyrylamino-6-(phenethyl-propyl-carbamoyl)-5,6-dihydro-4H-pyran-2-carboxylic acid] | 43
CCCN(CCC)C(=O)[C@@H]1OC(C(=O)O)=C[C@H](N)[C@H]1NC(=O)C(F)(F)F [(4S,5R,6R)-4-Amino-6-dipropylcarbamoyl-5-(2,2,2-trifluoro-acetylamino)-5,6-dihydro-4H-pyran-2-carboxylic acid] | 0.0003
CCCN(CCc1ccccc1)C(=O)[C@@H]1OC(C(=O)O)=C[C@H](N)[C@H]1NC(=O)C1CC1 [(4S,5R,6R)-4-Amino-5-(cyclopropanecarbonyl-amino)-6-(phenethyl-propyl-carbamoyl)-5,6-dihydro-4H-pyran-2-carboxylic acid] | 0.05
CCCN(CCC)C(=O)[C@@H]1OC(C(=O)O)=C[C@H](NC)[C@H]1NC(C)=O [(4S,5R,6R)-5-Acetylamino-6-dipropylcarbamoyl-4-methylamino-5,6-dihydro-4H-pyran-2-carboxylic acid] | 0.24
